US20220347299A1, “FLUORESCENT SYSTEMS FOR BIOLOGICAL IMAGING AND USES THEREOF” (LIGHTOX LIMITED, priority 2019, published 2022)

System: HaCaT keratinocytes
Assay: Co-staining with organelle markers, co-localisation (PCC)
Format: cell-based
Conditions: 1 μM compound, 30 minutes, BODIPY ER-Tracker Red
Experimental: To study the localisation of compounds in biological cells, co-staining of compounds of formula I with specific organelle markers (fluorescent dyes and antibodies) within biological cells was conducted. The following compounds were studied: compounds 6, 7, 12, 13, 14 and 15. HaCaT keratinocyte cell lines were used for the following experimental procedures. The cells were incubated in cell culture media (94% Dulbecco's Modified Eagle Medium (DMEM), 5% Foetal Bovine Serum (FBS) and 1% Penicillin Streptomycin solution (Pen-Strep). The cells were plated in 8-well plates, at a concentration of 25,000 cells per ml. 200 μl of cell suspension was added to each well, and the cells were incubated for 2 days before staining and imaging was carried out. In order to visualise the mitochondria, cells were probed with the mitochondrial dye MitoTracker® Deep Red. Cells to be stained were incubated with 200 μl MitoTracker® Deep Red solution (200 nM MitoTracker® and 1 μM Formula I compound in cell culture media) per well (N=3) for 30 minutes. Nile Red was used to identify lipids within the cells. 200 μl Nile Red Lipophilic dye (10 μg/ml Nile Red and 1 μM Formula I compound in cell culture media) was added to each well (N=3) and incubated for 30 minutes. For the detection of lysosomes within the cells, LysoTracker® Red DND-99 dye was used. 200 μl LysoTracker® Red DND-99 (50 nM LysoTracker® and 1 μM Formula I compound solution in cell culture media) was added to each well (N=3) and incubated for 30 minutes. For visualisation of the endoplasmic reticulum (ER), cells were stained with BODIPY® ER-Tracker® Red. 200 μl BODIPY ER-Tracker® Red (1 μM BODIPY® and 1 μM Formula I compound solution in cell culture media) was added to each well (N=3) and incubated for 30 minutes. Following incubation, the cell culture media containing dye was removed, and cells were washed twice with 200 μl phosphate buffered saline (PBS). After washing, 200 μl PBS was added into each well for imaging. For visualisation of the nuclear lamina, cells were probed with an anti-lamin A/C antibody. The cells were plated on 22×22 mm cover slips (10,000 cells/ml) and incubated for 2 days before staining. The cells were washed with PBS to remove excess media before staining. The cells were fixed with 4% paraformaldehyde (PFA) for 10 minutes at room temperature, before being washed twice in PBS for 5 minutes. Following washing, the cells were permeabilised in 0.4% Triton X-100 in PBS for 10 minutes. The cells were subsequently washed three times in PBS for 5 minutes, before being incubated in blocking buffer (1% BSA, 0.1% fish gelatine and 0.1% Triton X-100 in PBS) for 15 minutes at room temperature. The cells were incubated in primary antibody (mouse anti-lamin A/C IgG in blocking buffer) for 1 hour at room temperature. The cells were then washed twice in blocking buffer and incubated in secondary antibody (anti-mouse Alexa-594 IgG in blocking buffer) for 30 minutes at room temperature. Cells were washed twice in PBS for 10 minutes at room temperature. For cell staining with compounds of formula I, 5 μM of the compound of formula I in PBS was added to the cells for 30 minutes at room temperature. Cells were then washed five times for 5 minutes in PBS. Following washing, the cells were mounted onto non-charged microscopy slides using 6 μl Mowiol® per cover slip as mounting media. A Zeiss 880 confocal microscope was used for all the imaging work. [table] Image) Coloc2 software was used to calculate co-localization statistics between the compounds of formula I and the organelle marker images. The background was subtracted from each image and a region of interest (ROI) was used to target the analysis. The point spread function (PSF) of each image was calculated as 2.0 and Coastes' iterations was set to 100. The statistic quantified was the Pearson's Correlation Coefficient (PCC). PCC gives a number ranging from +1 to −1:1=perfect co-localisation; 0=no relationship; and, −1=perfect anti-co-localisation. […]

Structure (SMILES): COC(=O)/C=C/c1ccc(C#Cc2ccc(N(C)CCN)cc2)cc1 [Compound 12, methyl (2E)-3-[4-(2-{4-[(2-aminoethyl)(methyl)amino]phenyl}ethynyl)phenyl]prop-2-enoate]
- average PCC Value with BODIPY ER-Tracker: 0.34
